Experimental data reported in patent publication US6749804B2, “Process for treating animal habitats” (H & S Chemical Company, Inc., priority 2000, dated 2004).

Assays:
poults (turkeys) = experiment: Turkey grow out in 20,000 Ft^2 poultry house; format: in vivo
Experimental: (§1) The present invention is illustrated by the following Examples however, these Examples are not to be construed as limiting the invention.
4. (Prior art) a poultry house was prepared by cleaning out the used animal bedding (shaved wood chips). The poultry house was then sprayed with a maximum formulation of formaldehyde. After a 72 hour drying period, new shaved wood chips were spread in the poultry house and stocked with 15,000 thousand poults (turkeys). The temperature of the house was maintained at 74°% F±4 degrees F. for the term of the grow out. The term of the grow out was 100 days, average moisture content in the bedding was maintained below 14%. Average relative humidity in the house atmosphere ranged from 40% to 84%.
After two to three weeks, 200 pounds of alum (or aluminum sulfate) was spread evenly on top of the shaved wood chips and dispersed throughout.
5. A poultry house was prepared by spraying all house surfaces (ceiling, walls, and padding/floor) with a solution of 2 pounds of 18.7% formulated TCM per 300 gallons of water. The concentration of the TCM for the washdown was 200 ppm. 12,000 young poults (turkeys) were then placed in the poultry house for a 100-day grow out. The average temperature of the house was maintained at 78° F.±4 degrees for the term of the grow out. The bedding material used was shaved wood chips. Average moisture content in the bedding was maintained below 14%. Average humidity in the house atmosphere ranged from 40% to 68%. The term of the grow out was 100 days.
6. A poultry house was prepared by spraying all house surfaces (ceiling, walls, and padding) after a complete cleanout of previous used wood shavings and manure, with a solution of 2 pounds of 18.7% TCM formulation to 300 gallons of water. The concentration of TCM for the washdown was 200 ppm. 6000 young poults (turkeys) were placed on 3 tons of fresh shaved wood chips in the poultry house. A direct spray-on application of the TCM formulation was sprayed on the new wood shavings and allowed to dry. The solution consisted of 1 pound of formulated TCM to 125 gallons of water or 100 ppm. The average temperature inside the poultry house was maintained at 80 degrees±4 degrees F. for the term of the grow out. Average moisture content in the bedding was maintained below 14%. Average relative humidity in the house atmosphere ranged from 50% to 85%. The term of the grow out was 100 days. The poultry house was retreated via a direct spray-on of the formulated TCM was applied to the bedding material at week 10 of the grow out period for the same batch of turkey poults. The concentration of the TCM in solution was 1 pound of formulated TCM per 125 gallons of water.

chickens = experiment: Chicken grow out in 20,000 Ft^2 poultry house; format: in vivo
Experimental: as §1
3. (Prior art) A poultry house was prepared by cleaning out the used animal bedding (shaved wood chips) The poultry house was then sprayed with a maximum formulation of formaldehyde. After a 72 hour drying period new shaved wood chips were spread in the poultry house and stocked with 19,000 thousand chickens, temperature of the house was maintained at 74% F±4 degrees F. for the term of the grow out. The terms of the grow out was 45 days, average moisture content in the bedding was maintained below 14%. Average relative humidity in the house atmosphere ranged from 40% to 84%.
After two weeks, 200 pounds of alum (aluminum sulfate) was spread evenly on top of the shaved wood chips and dispersed throughout.
7. A poultry house was prepared by using used bedding material. The used animal bedding (shaved wood chips) and manure had been in use for 18 months without removal. A direct spray on application consisting of a solution of one pound of TCM per 125 gallons of water or 100 ppm was sprayed on top of the used animal bedding. 19,000 young chickens were placed in the poultry house. The average temperature of the house was maintained at 78 degrees F. for the term of the grow out. Average moisture content in the bedding was maintained below 14%. The term of the grow out was 39 days.

Other avian diseases = experiment: Feces sample from animal bedding tested for other avian diseases; settings: Example 8: 190 ppm TCM washdown; feces sample at eight weeks
Experimental: (§2) 8. A turkey house was prepared by spraying all surfaces with a solution of TCM. New wood chip bedding was then applied. The concentration was 10 pounds of TCM in 1,600 gallons of water or 190 ppm., 16,000 young poults (turkeys) were then placed in the poultry house for a 100 day grow out.
(§3) The purpose of this application was to compare e.Coli and salmonella results in a controlled environment as an alternative to formaldehyde, the current sanitizing method used by the poultry industry. At eight weeks of the grow out period after the wash down and the placement of the young poults, a feces sample was acquired from the animal bedding to determine disease levels from both the test poultry house and the control poultry house of Example 1. An independent laboratory tested the two samples.

e.Coli = experiment: Feces sample from animal bedding tested for e.Coli by independent laboratory; settings: Example 8: 190 ppm TCM washdown; 16,000 poults; feces sample at eight weeks
Experimental: as §2, §3

[1] = test system: hog waste total bacterial content; experiment: Percent kill in hog waste mixed with TCM solutions; format: cell-based
Experimental: 9. Test were conducted on hog waste, 3 gallons of hog waste feces, urine and spillage were prepared. […] Various solution samples of TCM solutions were prepared and mixed with the 3 gallon samples. The percent kill of these various samples was in accordance with Table III.

salmonella = experiment: Feces sample from animal bedding tested for salmonella by independent laboratory; settings: Example 8: 190 ppm TCM washdown; 16,000 poults; feces sample at eight weeks
Experimental: as §2, §3

[2] = Example 4 (prior art): formaldehyde spray, new wood chips, 200 pounds of alum after two to three weeks, 15,000 poults, 100 days
[3] = Example 3 (prior art): formaldehyde spray, new wood chips, 200 pounds of alum after two weeks, 19,000 chickens, 45 days
[4] = Example 5: house surfaces sprayed with 200 ppm TCM, 12,000 poults, 100-day grow out
[5] = Example 6: 200 ppm TCM washdown, 100 ppm spray on new wood shavings, retreated at week 10, 6000 poults, 100 days
[6] = Example 7: 100 ppm TCM sprayed on 18 month used bedding, 19,000 chickens, 39 days

In the case of `C=O` [formaldehyde, reference compound], the “average weight gain for the turkeys” value (poults (turkeys); [2]) was 21.8 pounds, the bird mortality rate (poults (turkeys); [2]) was 8.1% and the “birds condemned at the processing facility” value (poults (turkeys); [2]) was 2.3%. The “average weight gain for the chickens” value (chickens; [3]) was 3.96 pounds, the bird mortality rate (chickens; [3]) was 3.56% and the “percentage of birds condemned at the processing facility” value (chickens; [3]) was 0.15%.

trichloromelamine [TCM] was tested, and the “other avian diseases in the animal bedding material” value (Other avian diseases) was “not in the TCM test house”, the “e.Coli in the animal bedding material” value (e.Coli) was “no e.Coli or salmonella” and the bird mortality (poults (turkeys); [4]) was 2.7%. For the same molecule, the “birds condemned at the processing facility” value (poults (turkeys); [4]) was 1.7%, the “weight gain for the turkeys” value (poults (turkeys); [4]) was 24.3 pounds and the bird mortality (poults (turkeys); [5]) was 0.7%. The “birds condemned at the poultry processing facility” value (poults (turkeys); [5]) was 1.4%, the “weight gain for the birds” value (poults (turkeys); [5]) was 23.9 pounds and the “weight gains of the chickens versus control poultry house” value (chickens; Example 7: 100 ppm TCM on used bedding vs control house treated with alum) was “insignificant difference”. For the same molecule, the average weight (chickens; [6]) was 4 pounds, the bird mortality rate (chickens; [6]) was 1.1% and the “birds condemned at the poultry processing facility” value (chickens; [6]) was 0.04%. For the same molecule, the “PERCENT KILL” value ([1]; 0.25 oz. in 3 gallons of hog waste) was 99.997%, the “PERCENT KILL” value ([1]; 0.50 oz. in 3 gallons of hog waste) was 99.9995% and the “PERCENT KILL” value ([1]; 0.75 oz. in 3 gallons of hog waste) was 99.998%. The “PERCENT KILL” value ([1]; 1.0 oz. in 3 gallons of hog waste) was 99.9998%, the “PERCENT KILL” value ([1]; 2.0 oz. in 3 gallons of hog waste) was 99.9996% and the “PERCENT KILL” value ([1]; 3.0 oz. in 3 gallons of hog waste) was over 99.9998%. For the same molecule, the “PERCENT KILL” value ([1]; 4.0 oz. in 3 gallons of hog waste) was over 99.9998% and the “salmonella in the animal bedding material” value (salmonella) was “no e.Coli or salmonella”.
